One compound from article PMC7180948, “New Insights into 4-Anilinoquinazolines as Inhibitors of Cardiac Troponin I–Interacting Kinase (TNNi3K)” (Molecules, 2020) can be followed below.

The structures appear in SMILES notation.

Common to all, as to test: biochemical
Common to all, as to design: KINOMEscan competition binding panel (Eurofins DiscoverX), single concentration, percent inhibition
What all share (conditions): read-out: 15 at 1 µM % inhibition

One test addresses T1, CDK4-cyclinD3 (Homo sapiens, UniProt P11802).
T1 construct: cyclinD3
In outline: (§1)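 KINOMEscan binding panel of >400 kinases, run by Eurofins DiscoverX, with compounds tested at a single concentration of 1 µM.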

For a further test, the target named is FLT4 (Homo sapiens, UniProt P35916). In outline: as §1
For another test, the target named is T2, AMPK-alpha1 (Homo sapiens, UniProt Q13131).
T2 construct: gene PRKAA1
In outline: as §1

Another test concerns the target WNK2 (Homo sapiens, UniProt Q9Y3S1). The gist of the method: as §1
The next test has as its target EPHA8 (Homo sapiens, UniProt P29322). In outline: as §1
Test [1] concerns the target T3, RPS6KA5(Kin.Dom.1-N-terminal) (Homo sapiens, UniProt O75582).
T3 construct: Kin.Dom.1-N-terminal
In outline: as §1

Another test addresses CSNK1D (Homo sapiens, UniProt P48730). In outline: as §1
In test [2] the target is T4, ABL1(T315I)-phosphorylated (Homo sapiens, UniProt P00519, T315I).
T4 construct: phosphorylated
In outline: as §1

The next test addresses CSNK2A2 (Homo sapiens, UniProt P19784). In outline:
as §1

In the next test the target is ALK (Homo sapiens, UniProt Q9UM73). In outline: as §1
A further test deals with PIK3CB (Homo sapiens, UniProt P42338). In outline:
as §1

The target of the next test is DAPK1 (Homo sapiens, UniProt P53355). In outline:
as §1

For a further test, the target named is RET(V804L) (Homo sapiens, UniProt P07949, V804L). In outline:
as §1

A further test has as its target CDK8 (Homo sapiens, UniProt P49336). In outline: as §1
For a further test, the target named is CSNK1G1 (Homo sapiens, UniProt Q9HCP0). The gist of the method: as §1
A further test concerns the target BRAF (Homo sapiens, UniProt P15056). The gist of the method:
as §1

Another test concerns the target TNNI3K (Homo sapiens, UniProt Q59H18). The gist of the method: as §1
In a further test the target is T5, YSK1 (Homo sapiens, UniProt O00506).
T5 construct: gene STK25
The gist of the method: as §1

For a further test, the target named is WEE2 (Homo sapiens, UniProt P0C1S8). The gist of the method: as §1
In a further test the target is MAP3K15 (Homo sapiens, UniProt Q6ZN16). In outline: as §1
A further test deals with FLT3(ITD,F691L) (Homo sapiens, UniProt P36888, F691L/ITD). The gist of the method: as §1
The target of a further test is AURKB (Homo sapiens, UniProt Q96GD4). The gist of the method:
as §1

A further test deals with AAK1 (Homo sapiens, UniProt Q2M2I8). In outline: as §1
The target in the next test is FGFR4 (Homo sapiens, UniProt P22455). The gist of the method:
as §1

T2 sequence (Q13131 whole entry): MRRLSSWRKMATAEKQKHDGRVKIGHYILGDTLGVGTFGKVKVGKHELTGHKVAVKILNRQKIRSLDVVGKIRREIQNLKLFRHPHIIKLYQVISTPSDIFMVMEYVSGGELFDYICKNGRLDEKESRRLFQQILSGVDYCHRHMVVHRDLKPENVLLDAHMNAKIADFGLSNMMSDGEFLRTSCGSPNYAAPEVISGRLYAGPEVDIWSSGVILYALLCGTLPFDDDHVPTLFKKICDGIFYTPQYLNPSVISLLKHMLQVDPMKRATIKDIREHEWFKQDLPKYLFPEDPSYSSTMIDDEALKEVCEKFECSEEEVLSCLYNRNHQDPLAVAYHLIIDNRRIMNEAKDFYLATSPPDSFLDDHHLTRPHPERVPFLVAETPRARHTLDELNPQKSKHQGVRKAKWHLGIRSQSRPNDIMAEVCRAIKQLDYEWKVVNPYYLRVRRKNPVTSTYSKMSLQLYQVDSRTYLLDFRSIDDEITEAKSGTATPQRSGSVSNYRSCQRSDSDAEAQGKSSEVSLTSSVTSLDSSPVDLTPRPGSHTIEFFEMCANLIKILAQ
TNNI3K, sequence (Q59H18 whole entry): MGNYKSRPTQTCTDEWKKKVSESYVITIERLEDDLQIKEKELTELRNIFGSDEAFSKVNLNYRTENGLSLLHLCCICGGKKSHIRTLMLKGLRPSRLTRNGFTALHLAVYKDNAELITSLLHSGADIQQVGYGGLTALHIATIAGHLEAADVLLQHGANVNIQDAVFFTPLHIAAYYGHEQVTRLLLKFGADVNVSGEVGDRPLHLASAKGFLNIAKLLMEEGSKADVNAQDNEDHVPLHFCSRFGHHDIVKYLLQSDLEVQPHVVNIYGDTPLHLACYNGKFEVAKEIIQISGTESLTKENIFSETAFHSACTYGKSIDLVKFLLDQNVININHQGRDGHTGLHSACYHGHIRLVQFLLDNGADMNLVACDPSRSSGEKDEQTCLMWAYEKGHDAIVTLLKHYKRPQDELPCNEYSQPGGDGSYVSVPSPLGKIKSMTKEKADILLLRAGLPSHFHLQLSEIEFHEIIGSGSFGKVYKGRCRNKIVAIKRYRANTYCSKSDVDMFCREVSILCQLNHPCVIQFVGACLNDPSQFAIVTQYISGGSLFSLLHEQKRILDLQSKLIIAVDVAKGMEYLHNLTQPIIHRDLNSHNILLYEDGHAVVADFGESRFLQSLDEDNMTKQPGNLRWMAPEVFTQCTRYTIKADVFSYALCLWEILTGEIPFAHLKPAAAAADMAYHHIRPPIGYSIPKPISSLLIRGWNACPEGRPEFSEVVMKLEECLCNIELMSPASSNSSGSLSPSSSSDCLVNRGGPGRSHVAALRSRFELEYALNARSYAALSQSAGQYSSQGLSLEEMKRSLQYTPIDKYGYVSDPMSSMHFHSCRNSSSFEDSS
T5 sequence (O00506 whole entry): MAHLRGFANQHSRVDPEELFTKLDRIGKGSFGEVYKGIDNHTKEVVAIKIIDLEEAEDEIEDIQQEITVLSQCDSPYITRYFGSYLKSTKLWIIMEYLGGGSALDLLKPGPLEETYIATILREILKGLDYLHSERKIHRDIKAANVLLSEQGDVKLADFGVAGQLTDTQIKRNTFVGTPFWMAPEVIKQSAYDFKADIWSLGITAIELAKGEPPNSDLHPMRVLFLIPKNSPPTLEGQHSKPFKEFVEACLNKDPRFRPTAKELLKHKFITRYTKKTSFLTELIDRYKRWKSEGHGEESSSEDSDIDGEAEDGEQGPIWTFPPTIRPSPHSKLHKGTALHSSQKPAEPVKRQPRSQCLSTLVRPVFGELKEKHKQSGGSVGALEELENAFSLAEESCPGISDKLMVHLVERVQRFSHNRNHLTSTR
BRAF, sequence (P15056 whole entry): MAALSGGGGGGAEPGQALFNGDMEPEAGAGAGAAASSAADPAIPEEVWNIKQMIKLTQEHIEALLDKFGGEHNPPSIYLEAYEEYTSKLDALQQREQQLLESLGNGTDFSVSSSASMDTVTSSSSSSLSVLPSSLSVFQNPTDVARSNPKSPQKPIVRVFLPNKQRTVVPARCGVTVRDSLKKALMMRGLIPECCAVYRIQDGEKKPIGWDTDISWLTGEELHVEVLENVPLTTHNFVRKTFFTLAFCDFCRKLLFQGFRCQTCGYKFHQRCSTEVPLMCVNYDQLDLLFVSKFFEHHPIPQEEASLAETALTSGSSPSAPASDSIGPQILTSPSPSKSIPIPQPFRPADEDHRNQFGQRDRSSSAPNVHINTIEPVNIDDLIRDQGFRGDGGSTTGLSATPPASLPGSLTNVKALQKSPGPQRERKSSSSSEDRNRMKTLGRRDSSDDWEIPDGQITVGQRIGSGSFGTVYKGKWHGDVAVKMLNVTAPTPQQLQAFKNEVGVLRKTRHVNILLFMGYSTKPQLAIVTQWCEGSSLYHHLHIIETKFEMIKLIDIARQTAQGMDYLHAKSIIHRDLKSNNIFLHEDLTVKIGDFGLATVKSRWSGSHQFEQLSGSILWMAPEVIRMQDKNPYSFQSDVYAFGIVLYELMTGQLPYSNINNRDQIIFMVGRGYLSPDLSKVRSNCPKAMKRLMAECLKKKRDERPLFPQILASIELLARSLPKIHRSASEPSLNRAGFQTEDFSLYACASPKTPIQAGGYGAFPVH
T1 sequence (P11802 whole entry): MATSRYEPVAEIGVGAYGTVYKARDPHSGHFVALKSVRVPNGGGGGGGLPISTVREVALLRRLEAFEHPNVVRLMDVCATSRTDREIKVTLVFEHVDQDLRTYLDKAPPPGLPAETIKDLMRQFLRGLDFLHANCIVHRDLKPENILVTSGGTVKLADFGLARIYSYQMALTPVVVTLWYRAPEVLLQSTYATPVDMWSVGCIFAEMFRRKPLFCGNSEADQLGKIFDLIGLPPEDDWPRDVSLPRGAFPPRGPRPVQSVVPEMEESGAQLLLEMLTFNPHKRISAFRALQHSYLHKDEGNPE
T1 sequence (P30281 whole entry partner): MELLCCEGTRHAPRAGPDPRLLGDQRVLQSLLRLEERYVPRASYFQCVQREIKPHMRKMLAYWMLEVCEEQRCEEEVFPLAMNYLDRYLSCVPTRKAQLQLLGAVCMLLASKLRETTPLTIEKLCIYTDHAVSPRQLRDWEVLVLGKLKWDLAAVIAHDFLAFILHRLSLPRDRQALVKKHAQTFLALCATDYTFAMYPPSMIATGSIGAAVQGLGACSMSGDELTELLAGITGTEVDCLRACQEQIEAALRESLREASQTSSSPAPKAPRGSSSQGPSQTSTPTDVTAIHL
PIK3CB, sequence (P42338 whole entry): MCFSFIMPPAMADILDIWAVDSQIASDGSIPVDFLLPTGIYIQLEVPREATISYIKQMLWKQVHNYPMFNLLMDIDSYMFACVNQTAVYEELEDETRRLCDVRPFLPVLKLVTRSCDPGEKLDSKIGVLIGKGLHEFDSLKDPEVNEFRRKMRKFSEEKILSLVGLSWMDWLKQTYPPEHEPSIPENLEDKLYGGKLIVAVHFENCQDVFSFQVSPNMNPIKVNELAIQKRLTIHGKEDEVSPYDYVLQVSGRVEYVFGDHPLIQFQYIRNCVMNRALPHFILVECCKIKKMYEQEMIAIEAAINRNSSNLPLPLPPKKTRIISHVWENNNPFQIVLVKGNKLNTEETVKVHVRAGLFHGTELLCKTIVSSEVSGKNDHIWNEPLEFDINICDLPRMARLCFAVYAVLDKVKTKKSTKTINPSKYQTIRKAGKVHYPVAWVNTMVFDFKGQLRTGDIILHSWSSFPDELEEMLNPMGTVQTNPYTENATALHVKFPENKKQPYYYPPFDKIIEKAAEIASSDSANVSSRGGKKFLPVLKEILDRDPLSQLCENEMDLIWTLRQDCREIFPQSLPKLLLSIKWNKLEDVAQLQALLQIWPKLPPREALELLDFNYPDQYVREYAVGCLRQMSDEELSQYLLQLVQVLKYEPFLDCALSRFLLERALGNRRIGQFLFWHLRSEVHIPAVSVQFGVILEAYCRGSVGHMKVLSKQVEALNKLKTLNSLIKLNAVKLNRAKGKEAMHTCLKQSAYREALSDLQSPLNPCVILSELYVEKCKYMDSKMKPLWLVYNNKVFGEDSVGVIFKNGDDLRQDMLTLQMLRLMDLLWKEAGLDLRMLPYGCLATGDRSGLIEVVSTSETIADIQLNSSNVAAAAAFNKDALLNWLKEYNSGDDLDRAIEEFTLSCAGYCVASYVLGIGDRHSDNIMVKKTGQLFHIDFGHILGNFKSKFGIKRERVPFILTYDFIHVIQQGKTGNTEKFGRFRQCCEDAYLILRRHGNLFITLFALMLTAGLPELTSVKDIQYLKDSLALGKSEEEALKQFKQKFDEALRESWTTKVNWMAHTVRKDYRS
CSNK2A2, sequence (P19784 whole entry): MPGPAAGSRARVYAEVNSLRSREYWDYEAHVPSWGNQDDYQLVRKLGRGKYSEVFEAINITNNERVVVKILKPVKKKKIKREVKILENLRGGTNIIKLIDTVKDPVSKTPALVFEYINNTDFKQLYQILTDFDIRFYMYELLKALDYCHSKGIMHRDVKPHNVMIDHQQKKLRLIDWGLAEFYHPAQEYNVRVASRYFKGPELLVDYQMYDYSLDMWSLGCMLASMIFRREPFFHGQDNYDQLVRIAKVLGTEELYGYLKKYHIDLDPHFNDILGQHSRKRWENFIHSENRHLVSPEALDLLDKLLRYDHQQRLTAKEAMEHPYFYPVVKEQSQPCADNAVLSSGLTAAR
CSNK1G1, sequence (Q9HCP0 whole entry): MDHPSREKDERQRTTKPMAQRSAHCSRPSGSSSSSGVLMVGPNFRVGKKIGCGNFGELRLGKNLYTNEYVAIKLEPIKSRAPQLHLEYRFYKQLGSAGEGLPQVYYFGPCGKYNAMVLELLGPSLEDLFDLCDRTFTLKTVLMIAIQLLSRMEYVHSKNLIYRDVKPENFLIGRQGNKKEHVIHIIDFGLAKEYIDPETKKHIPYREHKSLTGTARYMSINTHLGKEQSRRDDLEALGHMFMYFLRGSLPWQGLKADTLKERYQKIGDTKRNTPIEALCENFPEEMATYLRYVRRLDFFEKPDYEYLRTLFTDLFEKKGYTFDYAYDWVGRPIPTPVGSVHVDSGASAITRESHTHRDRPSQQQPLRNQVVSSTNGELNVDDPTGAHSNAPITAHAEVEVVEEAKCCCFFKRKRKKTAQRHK

A word on the inhibition: it is the share of the control response that was lost under treatment. With `CNS(=O)(=O)c1ccc(N(C)C)c(Nc2nc(C)nc3cc(OC)c(OC)cc23)c1` [compound 15, 3-((6,7-dimethoxy-2-methylquinazolin-4-yl)amino)-4-(dimethylamino)-N-methylbenzenesulfonamide], the inhibition at 1 µM on CDK4-cyclinD3 is 15%; on FLT4, 0%; at AMPK-alpha1, 1%; on WNK2 it was 14%; at EPHA8, 3%; in test [1], 0%. In addition, the inhibition at 1 µM on CSNK1D turned out to be 0%; in test [2] it was 0%; on CSNK2A2 it was 14%; at ALK, 10%; at PIK3CB, 25%; on DAPK1, 7%. Further, the inhibition at 1 µM on RET(V804L) was 0%; on CDK8 it was 0%; at CSNK1G1, 0%; at BRAF, 20%; at TNNI3K it was 7%; at YSK1 it was 13%. Further, the inhibition at 1 µM on WEE2 worked out at 0%; on MAP3K15 it was 28%; on FLT3(ITD,F691L) it was 0%; at AURKB, 3%; at AAK1 it was 4%; at FGFR4, 4%.
